# Data: the NIST ThermoML archive (doi:10.1021/acs.jced.7b00646)
# Numbers after ± are expanded uncertainties.
# Test: xn = mol fraction of the nth substance listed
# Settings: 318.15 K, 101.3 kPa, Liquid, Alternating current cell with electrodes
Compound,electrical conductivity (x2 = 0.05) [S/m],electrical conductivity (x2 = 0.1) [S/m],electrical conductivity (x2 = 0.2001) [S/m],electrical conductivity (x2 = 0.2999) [S/m],electrical conductivity (x2 = 0.4) [S/m],electrical conductivity (x2 = 0.5002) [S/m],electrical conductivity (x2 = 0.5998) [S/m],electrical conductivity (x2 = 0.7) [S/m],electrical conductivity (x2 = 0.8) [S/m],electrical conductivity (x2 = 0.8999) [S/m],electrical conductivity (x1 = 1) [S/m],also measured
"CC1COC(=O)O1 (centres undefined) [4-methyl-1,3-dioxolan-2-one] + CCCC[n+]1ccn(C)c1.O=S(=O)([N-]S(=O)(=O)C(F)(F)F)C(F)(F)F",1.08 ± 0.026,1.51 ± 0.017,1.75 ± 0.018,1.68 ± 0.017,1.53 ± 0.016,1.36 ± 0.014,1.224 ± 0.012,1.114 ± 0.011,1.009 ± 0.01,0.924 ± 0.009,,
CCCC[n+]1ccn(C)c1.O=S(=O)([N-]S(=O)(=O)C(F)(F)F)C(F)(F)F + O=C1CCCO1,,,,,,,,,,,0.877 ± 0.009,
O=C1OCCO1 [ethylene carbonate] + CCCC[n+]1ccn(C)c1.O=S(=O)([N-]S(=O)(=O)C(F)(F)F)C(F)(F)F,1.36 ± 0.033,1.87 ± 0.02,2.06 ± 0.021,1.908 ± 0.019,1.7 ± 0.017,1.504 ± 0.015,1.313 ± 0.013,1.17 ± 0.012,1.07 ± 0.011,0.965 ± 0.01,,
CCCC[n+]1ccn(C)c1.O=S(=O)([N-]S(=O)(=O)C(F)(F)F)C(F)(F)F + CC1COC(=O)O1,,,,,,,,,,,0.877 ± 0.009,
CCCC[n+]1ccn(C)c1.O=S(=O)([N-]S(=O)(=O)C(F)(F)F)C(F)(F)F + O=C1OCCO1,,,,,,,,,,,0.877 ± 0.009,
CCCC[n+]1ccn(C)c1.O=S(=O)([N-]S(=O)(=O)C(F)(F)F)C(F)(F)F + COC(=O)OC,,,,,,,,,,,0.877 ± 0.009,electrical conductivity (x1 = 0.05): 0.587 ± 0.023 S/m; electrical conductivity (x1 = 0.1): 1.36 ± 0.021 S/m; electrical conductivity (x1 = 0.2001): 2.12 ± 0.022 S/m; electrical conductivity (x1 = 0.2999): 2.14 ± 0.021 S/m; electrical conductivity (x1 = 0.4): 1.93 ± 0.02 S/m; electrical conductivity (x1 = 0.5002): 1.68 ± 0.017 S/m; electrical conductivity (x1 = 0.5998): 1.42 ± 0.015 S/m; electrical conductivity (x1 = 0.7): 1.23 ± 0.013 S/m; electrical conductivity (x1 = 0.8): 1.08 ± 0.011 S/m; electrical conductivity (x1 = 0.8999): 0.965 ± 0.01 S/m
O=C1CCCO1 [γ-butyrolactone] + CCCC[n+]1ccn(C)c1.O=S(=O)([N-]S(=O)(=O)C(F)(F)F)C(F)(F)F,1.43 ± 0.034,1.95 ± 0.021,2.13 ± 0.021,1.96 ± 0.02,1.72 ± 0.018,1.506 ± 0.015,1.307 ± 0.013,1.16 ± 0.012,1.03 ± 0.011,0.937 ± 0.009,,
